From PubChem BioAssay AID651648 (Sanford-Burnham Center for Chemical Genomics, 2012)
Active and inactive are the calls of the source. How the calls were made is not given here.

molecular target: CRF-binding protein / CRF-R2 receptor complex (human); assay: CRF-BP/CRF-R2 complex agonists, SAR follow-up, cell-based, 384-well (AID 651648); details: cells expressing CRF-BP/CRF-R2 complex, agonist read-out

SMILES	EC50
CC(=O)Nc1ccc(Sc2ncccc2C(=O)Nc2ccc(F)cc2)cc1	> 20 µM (inactive)
O=C(CCn1c2c(c3ccccc31)CCCC2)NNC(=O)c1ccccc1C(=O)O	> 20 µM (inactive)
Cc1sc(NC(=O)C2CCCCC2C(=O)O)c(C(N)=O)c1-c1ccc(C(C)(C)C)cc1 (stereo not drawn)	9.52 µM
CCOc1ccccc1N(CC(=O)N1CCOCC1)S(=O)(=O)c1ccc(OC)cc1OC	> 20 µM (inactive)
CCOc1ccc(S(=O)(=O)N(CC(=O)N2CCOCC2)c2ccccc2)cc1	> 20 µM (inactive)
O=C(Nc1cc(S(=O)(=O)N2CCCCC2)ccc1O)c1ccccc1NS(=O)(=O)c1ccc(F)c(F)c1	> 20 µM (inactive)
O=C(COC(=O)[C@H](Cc1ccccc1)NC(=O)c1ccco1)NCc1ccccc1	11.3 µM
CC(=O)Nc1ccc(Sc2ncccc2C(=O)Nc2ccccc2F)cc1	> 20 µM (inactive)
O=C(O)c1ccc(COc2ccccc2C=C2C(=O)c3ccccc3C2=O)cc1	> 20 µM (inactive)
COc1ccccc1N(CC(=O)N1CCOCC1)S(=O)(=O)c1ccc(C)cc1	> 20 µM (inactive)
O=C(O)c1cc(Cl)ccc1-c1ccc(/C=C/c2cc(C(F)(F)F)[nH]c(=O)n2)o1	5.43 µM
CSCCC(NC(=O)c1ccco1)C(=O)OC(C)C(=O)NC(=O)NC1CCCCC1 (stereo not drawn)	1.61 µM
CCOc1ccccc1N(CC(=O)N1CCOCC1)S(=O)(=O)c1ccc(C)cc1	2.84 µM
CCOC(=O)c1sc(NC(=O)c2cc(-c3ccccc3)nc3ccccc23)c(C#N)c1C	> 20 µM (inactive)
Cc1c(-n2cc(C(=O)c3ccccc3O)cc(C#N)c2=O)c(=O)n(-c2ccccc2)n1C	> 20 µM (inactive)
CC1(C(=O)NC(=S)NNC(=O)c2ccncc2)CCCCC1	5.94 µM
CCOc1ccccc1N(CC(=O)N1CCC(C)CC1)S(=O)(=O)c1ccc(SC)cc1	> 20 µM (inactive)
CCOc1ccccc1N(CC(=O)N1CCOCC1)S(=O)(=O)c1ccc(SC)cc1	1.47 µM
Cc1cc(=O)[nH]c(SCC(=O)Nc2ccc(Br)cc2)c1C#N	> 20 µM (inactive)
CCOc1ccccc1N(CC(=O)N1CCOCC1)S(=O)(=O)c1ccc(OC)cc1	5.85 µM
CCOc1ccccc1N(CC(=O)N1CCCCCC1)S(=O)(=O)c1ccc(SC)cc1	> 20 µM (inactive)
CCOc1ccc(N(CC(=O)N2CCOCC2)S(=O)(=O)c2ccc(SC)cc2)cc1	> 20 µM (inactive)
CC(=O)Nc1ccc(Sc2ncccc2C(=O)Nc2ccc(C(F)(F)F)cc2)cc1	> 20 µM (inactive)
O=C(NC(=O)c1ccccc1O)c1ccc(C(F)(F)F)cc1	13.6 µM

SMILES	EC50
Cc1cc(S(=O)(=O)c2cc3ccc(O)c(C)c3oc2=O)ccc1F	2.29 µM
CC(=O)Nc1ccc(Sc2ncccc2C(=O)Nc2cc(C)cc(C)c2)cn1	> 20 µM (inactive)
CCOC(=O)c1cc2ccccc2n1CCN(CC)CC	> 20 µM (inactive)
CCOc1ccccc1N(CC(=O)N1CCCCC1)S(=O)(=O)c1ccc(SC)cc1	0.473 µM
O=C(CC1CCCCC1)c1c(O)c2ccccc2oc1=O	5.68 µM
N#Cc1c(-c2ccccc2)cc(-c2ccccc2)nc1SCC(=O)NCC(=O)O	> 20 µM (inactive)
CCc1ccccc1N(CC(=O)N1CCOCC1)S(=O)(=O)c1ccc(C)cc1	> 20 µM (inactive)
CC(=O)Nc1ccc(Sc2ncccc2C(=O)Nc2ccc(OC(F)(F)F)cc2)cn1	5.32 µM
CCOc1ccccc1N(CC(=O)N1CCOCC1)S(=O)(=O)c1ccc(Br)cc1	1.5 µM
CC(=O)Nc1cccc(OC(=O)c2ccoc2C)c1	9.4 µM
CC(=O)Nc1ccc(Sc2ncccc2C(=O)Nc2ccc(Br)cc2)cc1	15.5 µM
COc1ccc(C)cc1N(CC(=O)N1CCOCC1)S(=O)(=O)c1ccccc1	10.7 µM
CCC1CCCCN1Cc1ccc(OC)c(C)c1 (stereo not drawn)	> 20 µM (inactive)
O=c1c(/C=C(\O)c2ccccc2)nc2ccccc2n1-c1ccccc1	8.1 µM
CCOc1ccc(N(CC(=O)N2CCOCC2)S(=O)(=O)c2ccccc2)cc1	> 20 µM (inactive)
Cc1cc(NC(=O)COC(=O)[C@H](Cc2ccccc2)NC(=O)c2ccco2)no1	5.58 µM
CCOc1ccccc1N(CC(=O)N1CCOCC1)S(=O)(=O)c1ccc(F)cc1	3.78 µM
CCOc1ccccc1N(CC(=O)N1CCCC1)S(=O)(=O)c1ccc(SC)cc1	> 20 µM (inactive)
O=C(Nc1cc(Cl)cc(Cl)c1)c1coc(=O)c(Br)c1	> 20 µM (inactive)
CC(=O)Nc1ccc(Sc2ncccc2C(=O)Nc2cccc(OC(F)(F)F)c2)cc1	> 20 µM (inactive)
O=C(Nc1ccc(SC(F)F)cc1)c1ccc2c(=O)n3c(nc2c1)CCC3	> 20 µM (inactive)
CCOc1ccc(N(CC(=O)N2CCOCC2)S(=O)(=O)c2ccc(C)cc2)cc1	> 20 µM (inactive)
O=C(O)CCNc1nc(-c2ccccc2)c2cc(Br)ccc2n1	> 20 µM (inactive)
Cc1ccccc1N(CC(=O)N1CCOCC1)S(=O)(=O)c1ccc(Cl)cc1	> 20 µM (inactive)

SMILES	EC50
CCOc1ccccc1N(CC(=O)N1CCOCC1)S(=O)(=O)c1ccc(C#N)cc1	> 20 µM (inactive)
CCOc1ccccc1N(CC(=O)N1CCOCC1)S(=O)(=O)c1cc(C(=O)OC)ccc1OC	> 20 µM (inactive)
CC1(C)CSC(=NCc2ccccc2)N1	7.83 µM
O=C1Nc2ccccc2N(O)N1c1cc(-c2cccc(Cl)c2)no1	> 20 µM (inactive)
CCOc1ccccc1N(CC(=O)N1CCOCC1)S(=O)(=O)c1cccc(OC)c1	3.67 µM
CCOc1ccccc1N(CC(=O)N1CCOCC1)S(=O)(=O)c1cccc(Br)c1	1.45 µM
COc1ccc(S(=O)(=O)N(CC(=O)N2CCOCC2)c2ccccc2OC)cc1	> 20 µM (inactive)
CCOc1ccccc1N(CC(=O)N1CCOCC1)S(=O)(=O)c1ccccc1C#N	> 20 µM (inactive)
CCOc1cccc(N(CC(=O)N2CCOCC2)S(=O)(=O)c2ccc(OC)cc2)c1	> 20 µM (inactive)
CCCCCn1nc(-c2ccccc2)c2nc3ccccc3nc21	3.16 µM
COc1ccc(NC(=O)c2ccccc2Sc2ccc(NC(C)=O)nc2)cc1	> 20 µM (inactive)
O=[N+]([O-])c1ccc(O)c(Nc2ncnc3ccc(Br)cc23)c1	> 20 µM (inactive)
CCOc1ccccc1N(CC(=O)N1CCOCC1)S(=O)(=O)c1cccc(F)c1	4.77 µM
CSCCC(NC(=O)c1ccco1)C(=O)N1CC=C(c2ccccc2)CC1 (stereo not drawn)	13.5 µM
CCOc1cccc(N(CC(=O)N2CCOCC2)S(=O)(=O)c2ccccc2)c1	> 20 µM (inactive)
O=C(Nc1ccc(Br)cc1Cl)c1ccc2c(=O)n3c(nc2c1)CCC3	> 40 µM (inactive)
CCOc1ccccc1N(CC(=O)N1CCOCC1)S(=O)(=O)c1ccccc1	4.77 µM
O=c1c(/C=C(\O)c2ccc(F)cc2)nc2ccccc2n1-c1ccccc1	9.91 µM
CC(=O)Nc1ccc(Sc2ncccc2C(=O)Nc2cc(Cl)cc(Cl)c2)cn1	> 20 µM (inactive)
Cc1cccc(Oc2ccc(NC(=O)c3ccccc3C(=O)O)cc2)c1C	> 20 µM (inactive)
CCOC(=O)N1CCN(C(=O)c2c[nH]c3ccc(S(=O)(=O)N(C)c4cccc(C)c4)cc3c2=O)CC1	2.51 µM
CC(=O)Nc1ccc(Sc2ncccc2C(=O)Nc2ccc(F)cc2)cn1	0.953 µM
COc1ccc(NC(=O)c2cccnc2Sc2ccc(NC(C)=O)nc2)cc1	> 20 µM (inactive)
CC(=O)Nc1ccc(Sc2ccccc2C(=O)Nc2ccc(F)cc2)cn1	> 20 µM (inactive)

SMILES	EC50
Cc1ccc2nc(NCCC(=O)O)nc(-c3ccccc3)c2c1	> 20 µM (inactive)
Oc1ccc2ccccc2c1CN1CCCCC1	> 20 µM (inactive)
COc1ccc(C)cc1NC(=O)c1cccnc1Sc1ccc(NC(C)=O)cc1	> 20 µM (inactive)
CCOc1ccc(N(CC(=O)N2CCOCC2)S(=O)(=O)c2ccc(OC)cc2)cc1	> 20 µM (inactive)
COc1ccc(C(=O)CSc2nnn(-c3cccc(NC(C)=O)c3)n2)cc1	> 20 µM (inactive)
CC(Oc1ccc(Br)cc1)C(=O)N1CCc2ccccc21 (stereo not drawn)	> 20 µM (inactive)
CCCCCCc1cc2cc(C(=O)NCc3ccccc3)c(=N)oc2cc1O	> 20 µM (inactive)
Cc1[nH]n(-c2cccc(Cl)c2)c(=O)c1-c1ccc(Cl)cc1	> 20 µM (inactive)
Cc1ccc2oc(=O)c(/C=C(\O)c3sc(C)nc3C)nc2c1	> 20 µM (inactive)
COc1ccc(CN2CCCCC2C)cc1C (stereo not drawn)	> 20 µM (inactive)
CCNC(=S)NNC(=O)c1cccn(Cc2ccc(Cl)cc2Cl)c1=O	> 20 µM (inactive)
Cc1ccc(S(=O)(=O)NCC(=O)N(CC(=O)NCc2ccco2)Cc2ccccc2)cc1	6.7 µM
CC(=O)Nc1ccc(Sc2ncccc2C(=O)Nc2ccc(N(O)O)cc2)cc1	1.96 µM
CC(C)c1nc2c(c(=O)c3ccccc3n2C)c(=O)n1CCc1ccccc1	7.24 µM
COc1ccc(CCn2c(C(C)C)nc3c(c(=O)c4ccccc4n3C)c2=O)cc1	> 20 µM (inactive)
CCc1nc2c(c(=O)c3ccccc3n2C)c(=O)n1C1CCCCCC1	4.68 µM
CCOc1ccccc1N(CC(=O)N1CCOCC1)S(=O)(=O)c1ccc(Br)cc1OC(F)(F)F	7.02 µM
COc1ccccc1N(CC(=O)N1CCOCC1)S(=O)(=O)c1ccccc1	> 20 µM (inactive)
CC1(C)C(=O)OC(c2cccn2-c2ccc([N+](=O)[O-])cc2)C2(CCCCC2)C1=O (stereo not drawn)	> 20 µM (inactive)
Cc1nc2c(c(=O)c3ccccc3n2C)c(=O)n1C1CCCCCC1	> 20 µM (inactive)
CC(=O)Nc1ccc(Sc2ncccc2C(=O)Nc2ccccc2Br)cc1	> 20 µM (inactive)
